Literature values as cited in patent US20180235982A1, “Treatment for Spirochete borne illness” (priority 2017, published 2018).

Settings: no species, matrix or method given

For CN(C)c1ccc(O)c2c1C[C@H]1C[C@H]3[C@H](N(C)C)C(O)=C(C(N)=O)C(=O)[C@@]3(O)C(O)=C1C2=O [Minocycline], the half-life is given as 12 to 14 h.
